Data on two compounds can be found in patent publication US20060205031A1, “Newly identified cholinephosphotransferases and ethanolaminephosphotransferases” (1) Universiteit Utrecht Holding B.V., priority 2003, published 2006).

The test system of assay [1] is yeast-associated SMase. The assay can be described thus: NBD-SM incubated with yeast cell lysates, TLC of reaction products. The class given is biochemical. The following applies: NEM 1 mM, NBD-SM 1.8 μM, 30 min at 37° C. The protocol: (§1) FIG. 3. NEM inhibits yeast-associated SMase but not mammalian SM synthase. (A) TLC separation of reaction products generated when NBD-SM (1.8 μM) was incubated with lysates of exponentially grown yeast cells (20 OD600 cells) in the presence (+) or absence (−) of N-ethylmaleimide (NEM; 1 mM). Reactions were in 0.35 ml RB1 buffer containing 1 μg/ml of IPC synthase inhibitor (aureobasidin A) and incubated for 30 min at 37° C. (B) TLC separation of reaction products generated when NBD-ceramide (NBD-Cer; […]) was incubated with lysates of HeLa cells (1/1: 2×10^6 cells; 1/4: 0.5×10^6 cells) in the presence (+) or absence (−) of NEM (1 mM). Reactions were in 0.35 ml PNS buffer, and incubated for 30 min at 37° C. Lipid extraction and TLC analysis were as described in Materials and methods.

For assay [2], the system named is mammalian SM synthase. The assay can be described thus: NBD-ceramide incubated with HeLa cell lysates, TLC of reaction products. The class given is biochemical, human. The note with it: NEM 1 mM, 30 min at 37° C. On the procedure: as §1
Assay [3] deals with T1, human SMS1 (Homo sapiens, UniProt Q86VZ5).
T1 construct: members for which full-length cDNAs could be obtained were cloned into a yeast multicopy, GALL promotor plasmid; His tag (from vector pYES2.1/V5-His-TOPO) (C); made in house; host or cells: Saccharomyces cerevisiae strain IAY11 (unpurified post-nuclear lysate)
T1 sequence (Q86VZ5 1-413): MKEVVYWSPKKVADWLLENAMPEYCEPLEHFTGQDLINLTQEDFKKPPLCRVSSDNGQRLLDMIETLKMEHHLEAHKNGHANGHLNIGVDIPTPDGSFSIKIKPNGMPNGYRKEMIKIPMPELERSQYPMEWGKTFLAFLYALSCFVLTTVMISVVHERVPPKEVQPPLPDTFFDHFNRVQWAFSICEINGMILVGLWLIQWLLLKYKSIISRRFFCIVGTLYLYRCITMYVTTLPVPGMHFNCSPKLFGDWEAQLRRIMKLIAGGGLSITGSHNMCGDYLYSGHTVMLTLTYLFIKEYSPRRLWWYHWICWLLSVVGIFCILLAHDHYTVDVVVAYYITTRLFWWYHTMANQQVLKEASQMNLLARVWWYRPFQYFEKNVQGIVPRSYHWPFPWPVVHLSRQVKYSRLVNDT
In words: SM synthase assay on lysates of SMS1-expressing yeast cells. More on the design: extent of inhibition of SMS1-mediated SM synthesis: dose or concentration left out as unconfirmed. The class given is biochemical. On the procedure: (§2) CSS-expressing yeast cells were lysed at 100 OD600/ml by bead bashing at 4° C. in RB1 buffer (120 mM K-glutamate, 15 mM KCl, 5 mM NaCl, 2 mM MnCl2, 2 mM MgCl2, 20 mM Hepes-KOH, pH 7.2) containing freshly added protease inhibitors (Holthuis et al., (1998).
(§3) Lysates were centrifuged at 700 g for 10 min at 4° C. and supernatants (0.25 ml per reaction) preincubated with NEM (1 mM) for 10 min at 37° C. The reaction was initiated by addition of 5 nmol of NBD-Cer in 0.1 ml RB1 buffer and incubation continued for 15 min. Lipids were extracted by addition of 1.7 ml chloroform:methanol (1:2.2), dried under N2 and subjected to butanol/water partitioning. Lipids recovered from the butanol phase were separated by one-dimensional TLC for 30 min in solvent I: chloroform/methanol/4.2 M NH4OH (9:7:3, v/v), followed by 30 min in solvent II: chloroform/methanol/acetic acid (45:30:7, v/v). Fluorescent images were recorded on a STORM 860 Imaging Analysis System (Molecular Dynamics, Sunnyvale, Calif.) and analysed with ImageQuant software.

Assay [4] concerns the target T2, human SMS2 (Homo sapiens, UniProt Q8NHU3).
T2 construct: members for which full-length cDNAs could be obtained were cloned into a yeast multicopy, GALL promotor plasmid; His tag (from vector pYES2.1/V5-His-TOPO) (C); made in house; host or cells: Saccharomyces cerevisiae strain IAY11 (unpurified post-nuclear lysate)
T2 sequence (Q8NHU3 1-365): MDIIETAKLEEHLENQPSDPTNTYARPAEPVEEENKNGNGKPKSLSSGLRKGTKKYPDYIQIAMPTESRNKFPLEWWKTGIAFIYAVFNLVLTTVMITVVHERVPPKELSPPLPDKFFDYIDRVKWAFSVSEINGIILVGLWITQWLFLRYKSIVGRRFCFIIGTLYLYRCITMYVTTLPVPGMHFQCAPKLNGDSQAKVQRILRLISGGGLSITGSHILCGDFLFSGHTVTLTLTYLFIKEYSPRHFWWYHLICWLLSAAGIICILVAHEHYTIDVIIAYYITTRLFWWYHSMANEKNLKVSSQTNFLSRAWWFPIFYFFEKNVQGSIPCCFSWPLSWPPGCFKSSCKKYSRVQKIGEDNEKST
In words: SM synthase assay on lysates of SMS2-expressing yeast cells. The class given is biochemical. On the procedure:
as §2, §3

In assay [5] the test system is Mammalian SM synthase. The note with it: Luberto and Hannun, 1998; cited from earlier work.

As for `CCN1C(=O)C=CC1=O` [NEM, N-ethylmaleimide], the “effect on yeast-associated SMases” value in assay [1] is “potent inhibitor”. The “effect on mammalian SM synthase” value in assay [2] is “does not affect”.
Turning to `S=C([S-])OC1CC2CC1C1CCCC21.[K+]` (stereo not shown) [D609, O-tricyclo[5.2.1.0^2,6]dec-9-yl dithiocarbonate potassium salt], the “inhibition of SM synthesis (in words)” value in assay [3] is listed as “inhibited SM synthesis in a dose-dependent manner”. For the same compound, the “extent of inhibition of SMS1-mediated SM synthesis” value in assay [3] (D609) worked out at 50%. Besides, in assay [4], the “inhibition of SM synthesis (in words)” value is “inhibited SM synthesis in a dose-dependent manner” and the “sensitivity of SMS2 to the drug relative to SMS1” value is “two-fold less sensitive”. In assay [5], the “sensitivity of mammalian SM synthase” value is on record as “sensitive”.
